Assay results reported in publication PMC6524645 (Cell, 2018).

B1: E. coli SelO (ydiU) C272A mutant (enzyme, UniProt P77649 1-478, looked up)
chain: MTLSFVTRWRDELPETYTALSPTPLNNARLIWHNTELANTLSIPSSLFKNGAGVWGGEALLPGMSPLAQVYSGHQFGVWAGQLGDGRGILLGEQLLADGTTMDWHLKGAGLTPYSRMGDGRAVLRSTIRESLASEAMHYLGIPTTRALSIVTSDSPVYRETAEPGAMLMRVAPSHLRFGHFEHFYYRRESEKVRQLADFAIRHYWSHLADDEDKYRLWFSDVVARTASLIAQWQTVGFAHGVMNTDNMSLLGLTLDYGPFGFLDDYEPGFIANHSDHQGRYSFDNQPAVALWNLQRLAQTLSPFVAVDALNEALDSYQQVLLTHYGERMRQKLGFMTEQKEDNALLNELFSLMARERSDYTRTFRMLSLTEQHSAASPLRDEFIDRAAFDDWFARYRGRLQQDEVSDSERQQLMQSVNPALVLRNWLAQRAIEAAEKGDMTELHRLHEALRNPFSDRDDDYVSRPPDWGKRLEVSCSS
modifications: intermolecular disulfide between the two copies (cysteine not named)

Tests used:
P. syringae SelO = P. syringae SelO (Pseudomonas syringae group genomosp. 3, UniProt Q87VB1); assay: X-ray crystal structure, […] Å; format: binding; settings: active site, nucleotide flipped; Mg2+ and Ca2+ bound; pH 8; 20 °C
Chain of P. syringae SelO (Q87VB1 whole entry): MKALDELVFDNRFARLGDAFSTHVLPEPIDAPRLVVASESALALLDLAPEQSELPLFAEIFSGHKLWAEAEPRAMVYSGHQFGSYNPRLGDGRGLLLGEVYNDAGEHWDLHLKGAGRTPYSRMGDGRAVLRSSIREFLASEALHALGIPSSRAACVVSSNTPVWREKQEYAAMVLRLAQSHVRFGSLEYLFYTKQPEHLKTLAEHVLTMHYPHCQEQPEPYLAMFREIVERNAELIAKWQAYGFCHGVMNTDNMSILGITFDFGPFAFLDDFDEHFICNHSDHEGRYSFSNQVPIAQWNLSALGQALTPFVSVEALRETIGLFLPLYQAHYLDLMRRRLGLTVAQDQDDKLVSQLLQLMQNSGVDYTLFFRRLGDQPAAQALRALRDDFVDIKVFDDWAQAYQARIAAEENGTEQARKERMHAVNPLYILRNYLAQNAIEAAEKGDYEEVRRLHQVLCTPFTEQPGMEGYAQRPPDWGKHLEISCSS

non-reducing SDS-PAGE = target: the molecule itself; assay: non-reducing SDS-PAGE

| Molecule | X-ray crystal structure, 2.27 Å (P. syringae SelO) | stoichiometry N (non-reducing SDS-PAGE) |
| --- | --- | --- |
| Nc1ncnc2c1ncn2[C@@H]1O[C@H](COP(=O)(O)OP(=O)(O)NP(=O)(O)O)[C@@H](O)[C@H]1O [AMP-PNP] | bound to an ATP derivative AMP-PNP | – |
| B1 | – | 2 |
